Source: patent publication US7592023B2, “Transplant media” (Trophic Solutions LLC, priority 2000, dated 2009)

Columns and labels:
MDCK cells = assay: cytoskeletal structure (actin and tubulin antibodies, confocal fluorescence microscopy) after cold storage, MDCK cells; assay type: cell-based; details: three days at cold temperatures
Excerpt: (§1) This Example describes the effect UW solution supplemented with BNP-1 on cytoskeletal structure of kidney cells. Briefly, either MDCK cells or primary kidney cell cultures were stored for three days at cold temperatures in either UW solution, UW solution supplemented with BNP-1, or DMEM. The cells were then labeled with actin and tubulin antibodies and analyzed by confocal fluorescence microscopy. […] In these primary cells, the actin and tubulin filaments maintained a coarse clumpy pattern with considerable cortical condensation near the plasma membrane and only a limited amount of fine fibrillar structure that would be considered more normal.

[1] = tested on: primary kidney cell cultures; assay: cytoskeletal structure (actin and tubulin antibodies, confocal fluorescence microscopy) after cold storage, primary kidney cell cultures; assay type: cell-based; details: three days at cold temperatures
Excerpt: as §1

[2] = tested on: bacteria, fungi, and enveloped viruses; details: cited from earlier work
[3] = tested on: panel of organisms in stationary growth phase; details: cited from earlier work

BNP-1: bovine defensin peptide, SEQ ID NO: 37, rlcrivvirvcr; synthesized by Multiple Peptide Systems (RLCRIVVIRVCR; listed as Bos taurus)
actin and tubulin after storage (MDCK cells): better maintenance of actin and tubulin | actin and tubulin after storage [1]: the tubulin and actin were better stained and more persistent

GPNP: guinea pig defensin, rrcicttrtcrfpyrrlgtcifqnrvytfcc (RRCICTTRTCRFPYRRLGTCIFQNRVYTFCC; Guinea pig cytomegalovirus)
spectrum of antimicrobial activity [2]: broad spectrum antimicrobial properties verified

HNP-1: defensin isolated from human PMN's, acycripaciagerrygtciyqgrlwafcc
antimicrobial properties, rank among defensins tested [3]: most potent antimicrobial properties

rabbit NP-1: rabbit neutrophil defensin, vvcacrralclprerragfcrirgrihplccrr (VVCACRRALCLPRERRAGFCRIRGRIHPLCCRR; listed as Oryctolagus cuniculus)
antimicrobial properties, rank among defensins tested [3]: most potent antimicrobial properties
